Laboratory results published in ChEMBL document CHEMBL1154131, “Bioactive diterpenes and other constituents of Croton steenkampianus” (J Nat Prod, 2008).
Converted amounts (≈) assume the structure as drawn.

Experiments:
Plasmodium falciparum [1] = assay: Antiplasmodial activity against chloroquine-resistant Plasmodium falciparum Dd2; assay type: functional, organism-based
Vero = assay: Cytotoxicity against african green monkey Vero cells by MTT assay; assay type: cell-based; conditions: Chlorocebus sabaeus
Plasmodium falciparum [2] = assay: Antiplasmodial activity against chloroquine-susceptible Plasmodium falciparum D10; assay type: functional, organism-based

IC50 (Plasmodium falciparum [2]) [µg/mL] | SMILES | IC50 (Plasmodium falciparum [1]) [µg/mL] | IC50 (Vero) [µg/mL]
– | O=c1c(O)c(-c2ccc(O)c(O)c2)oc2cc(O)cc(O)c12 [QUERCETIN] | 2.4 (≈ 7.94 µM) | 110 (≈ 364 µM)
1.1 (≈ 3.48 µM) | COc1ccc(-c2oc3cc(O)cc(O)c3c(=O)c2O)cc1O [TAMARIXETIN] | – | 170 (≈ 538 µM)
– | CCN(CC)CCCC(C)Nc1ccnc2cc(Cl)ccc12 (stereo not given) [CHLOROQUINE] | – | 48.5 (≈ 152 µM)
